PMC12775434, “Ultra-large virtual screening unveils potent agonists of the neuromodulatory orphan receptor GPR139” (Nature Communications, 2025)
Values joined by “and” are separate entries in the source; they are usually repeats but may differ in a detail not shown here. Equal entries are not always repeated. Where two headings read alike, the source gives them in different places.

Legend:
Assay type in all cases: cell-based
[1] = biological target: T1, human muscarinic acetylcholine M1 receptor (M1R) (Homo sapiens, UniProt P11229); assay: Ca2+ mobilization counter-screen in M1R-CHOk1 cells; details: individual replicates (Supplementary Figure 5);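 also: 10 µM test compound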
T1 sequence (P11229 1-460): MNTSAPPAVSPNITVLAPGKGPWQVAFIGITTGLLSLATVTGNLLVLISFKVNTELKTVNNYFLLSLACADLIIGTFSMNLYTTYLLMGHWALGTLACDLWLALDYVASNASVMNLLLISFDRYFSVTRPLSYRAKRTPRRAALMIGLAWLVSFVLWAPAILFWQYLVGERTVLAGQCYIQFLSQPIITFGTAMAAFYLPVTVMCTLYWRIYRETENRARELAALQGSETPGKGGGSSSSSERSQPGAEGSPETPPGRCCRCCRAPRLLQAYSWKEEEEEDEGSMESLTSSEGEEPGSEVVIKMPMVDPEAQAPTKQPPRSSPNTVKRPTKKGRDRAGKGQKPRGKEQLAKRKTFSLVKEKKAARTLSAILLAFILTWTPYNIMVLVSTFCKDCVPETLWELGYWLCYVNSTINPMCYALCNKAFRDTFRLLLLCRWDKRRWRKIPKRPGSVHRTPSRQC
Summary of the method: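 Counter-screen used CHO-K1 cells stably carrying human M1R, Fluo-4 AM-loaded (2 µM, 1 h, 37 °C). Calcium signal measured at 485/525 nm after compound addition.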

[2] = biological target: T2, GPR139 (Homo sapiens, UniProt Q6DWJ6); assay: Ca2+ mobilization assay, agonist mode, stable GPR139-CHOk1 cell line; details: for Emax: normalized to Lundbeck Cmp 1a, read-out: Emax (%) Ca2+
T2 sequence (Q6DWJ6 1-353): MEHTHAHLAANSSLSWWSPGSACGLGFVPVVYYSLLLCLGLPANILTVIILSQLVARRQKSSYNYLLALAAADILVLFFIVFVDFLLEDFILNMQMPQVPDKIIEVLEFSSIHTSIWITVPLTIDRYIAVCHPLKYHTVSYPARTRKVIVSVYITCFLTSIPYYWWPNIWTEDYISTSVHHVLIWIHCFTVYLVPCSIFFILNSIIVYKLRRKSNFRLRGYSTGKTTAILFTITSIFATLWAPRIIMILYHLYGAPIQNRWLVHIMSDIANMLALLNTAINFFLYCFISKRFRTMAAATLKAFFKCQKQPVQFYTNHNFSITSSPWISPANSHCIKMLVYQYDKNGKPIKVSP
Summary of the method: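 Agonist activity of compounds is assessed in stably transfected CHO-K1 cells using the calcium dye Fluo-4 at 37 °C in HEPES-buffered HBSS (pH 7.4). Efficacy is expressed relative to the reference agonist Lundbeck Cmp 1a, set as 100%.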

[3] = biological target: T2, GPR139; assay: Ca2+ mobilization assay, antagonist mode (EC80 800 nM Lundbeck Cmp 1a after 20 min preincubation), GPR139-CHOk1; details: individual replicates (Supplementary Figure 4)
Summary of the method: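 Antagonist mode: 800 nM (EC80) reference agonist Lundbeck Cmp 1a added following 20 min pre-incubation with 10 µM compound. GPR139-CHOk1 cells, Fluo-4 dye, probenecid-containing HEPES buffer pH 7.4; intracellular Ca2+ measured at 37 °C (ex 485, em 525 nm).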

[4] = Agonist mode, individual replicates (Supplementary Figure 4)
[5] = Supplementary Table 2, mean ± SEM, read-out: pEC50 Ca2+ (converted)
[6] = Supplementary Table 2, mean ± SEM
[7] = log [Compound] M = -4.5, individual replicate columns
[8] = log [Compound] M = -5.0, individual replicate columns
[9] = log [Compound] M = -5.5, individual replicate columns
[10] = log [Compound] M = -6.0, individual replicate columns
[11] = log [Compound] M = -6.5, individual replicate columns
[12] = log [Compound] M = -7.0, individual replicate columns
[13] = log [Compound] M = -7.5, individual replicate columns
[14] = log [Compound] M = -8.0, individual replicate columns
[15] = log [Compound] M = -8.5, individual replicate columns
[16] = log [Compound] M = -9.0, individual replicate columns

Structure (SMILES) | Ca2+ signal (% of Carbachol) [1] | Ca2+ signal (% of Cmp 1a) [2, 4] | EC50 [2, 5] [µM] | Emax [2, 6] [%] | Ca2+ signal (% of Cmp 1a) [2, 7] | Ca2+ signal (% of Cmp 1a) [2, 8] | Ca2+ signal (% of Cmp 1a) [2, 9] | Ca2+ signal (% of Cmp 1a) [2, 10] | Ca2+ signal (% of Cmp 1a) [2, 11] | Ca2+ signal (% of Cmp 1a) [2, 12] | Ca2+ signal (% of Cmp 1a) [2, 13] | Ca2+ signal (% of Cmp 1a) [2, 14] | Ca2+ signal (% of Cmp 1a) [2, 15] | Ca2+ signal (% of Cmp 1a) [2, 16] | Ca2+ signal (% of Cmp 1a) [3] | fold decrease in potency relative to parent compound 1 ([2]; Ca2+ mobilization EC50) | fold decrease in potency on substitution of the central oxadiazole ring ([2]; Ca2+ mobilization) [fold] | EC50 ([2]; GPR139-CHOk1, read-out: EC50, Ca2+ mobilization) [µM]
Cc1ccc(-c2nc(CC(=O)NC(C)c3ccccc3)no2)cn1 (centres unmarked) [Compound 1.32, CC(C1=CC=CC=C1)NC(CC2=NOC(C3=CN=C(C)C=C3)=N2)=O] | -19 % of Carbachol and -6 % of Carbachol and 8 % of Carbachol | 72 % of Cmp 1a and 83 % of Cmp 1a | 3.16 | 82 ± 9 | 119 % of Cmp 1a and 81 % of Cmp 1a and 67 % of Cmp 1a | 69 % of Cmp 1a (2×) and 43 % of Cmp 1a | 37 % of Cmp 1a and 66 % of Cmp 1a and 27 % of Cmp 1a | 13 % of Cmp 1a and 24 % of Cmp 1a and -2 % of Cmp 1a | -0.322 % of Cmp 1a and 4.26 % of Cmp 1a and 0.586 % of Cmp 1a | -6.64 % of Cmp 1a and 3.41 % of Cmp 1a and 1.32 % of Cmp 1a | -5 % of Cmp 1a and 2.31 % of Cmp 1a and 1.1 % of Cmp 1a | 10 % of Cmp 1a and 3 % of Cmp 1a and 2.26 % of Cmp 1a | 1.63 % of Cmp 1a and 4.29 % of Cmp 1a and 1.12 % of Cmp 1a | -8 % of Cmp 1a and 9 % of Cmp 1a and -2.5 % of Cmp 1a | 66 % of Cmp 1a and 64 % of Cmp 1a and 48 % of Cmp 1a |  |  | 
Cc1nonc1Cc1nc(CC(=O)NC(C)c2ccccc2)no1 (centres unmarked) [Compound 1.33, CC(C1=CC=CC=C1)NC(CC2=NOC(CC3=NON=C3C)=N2)=O] | -5 % of Carbachol and 8 % of Carbachol and 10 % of Carbachol | 66 % of Cmp 1a and 46 % of Cmp 1a and 64 % of Cmp 1a | 3.98 | 88 ± 2 | 85 % of Cmp 1a (2×) and 90 % of Cmp 1a and 83 % of Cmp 1a | 66 % of Cmp 1a and 64 % of Cmp 1a and 75 % of Cmp 1a and 85 % of Cmp 1a | 43 % of Cmp 1a and 39 % of Cmp 1a and 20 % of Cmp 1a and 51 % of Cmp 1a | 15 % of Cmp 1a and 21 % of Cmp 1a and 26 % of Cmp 1a and -5 % of Cmp 1a | 7 % of Cmp 1a and 26 % of Cmp 1a and 10 % of Cmp 1a and -17 % of Cmp 1a | -3.33 % of Cmp 1a and 29 % of Cmp 1a and 0 % of Cmp 1a and -12 % of Cmp 1a | 3 % of Cmp 1a and 6.33 % of Cmp 1a and 6 % of Cmp 1a and -13 % of Cmp 1a | 1 % of Cmp 1a and 1.67 % of Cmp 1a and 3 % of Cmp 1a and -15 % of Cmp 1a | 1.33 % of Cmp 1a (2×) and -3 % of Cmp 1a and -12 % of Cmp 1a | 4.33 % of Cmp 1a and 6.33 % of Cmp 1a and 12 % of Cmp 1a and -16 % of Cmp 1a | 30 % of Cmp 1a and 49 % of Cmp 1a and 42 % of Cmp 1a |  |  | 
Cc1ncc(-c2nc(CC(=O)NC(C)c3ccccc3)no2)s1 (centres unmarked) [Compound 1.34, CC(C1=CC=CC=C1)NC(CC2=NOC(C3=CN=C(S3)C)=N2)=O] | 0.0525 % of Carbachol and -0.37 % of Carbachol and -1 % of Carbachol | 81 % of Cmp 1a and 51 % of Cmp 1a | 3.98 | 90 ± 6 | 108 % of Cmp 1a and 98 % of Cmp 1a and 84 % of Cmp 1a and 88 % of Cmp 1a | 66 % of Cmp 1a and 94 % of Cmp 1a and 68 % of Cmp 1a and 51 % of Cmp 1a | 43 % of Cmp 1a and 86 % of Cmp 1a and 38 % of Cmp 1a and 21 % of Cmp 1a | 8.56 % of Cmp 1a and 40 % of Cmp 1a and 9.49 % of Cmp 1a and -0.9 % of Cmp 1a | -2.32 % of Cmp 1a and 12 % of Cmp 1a and 4.69 % of Cmp 1a and 1.79 % of Cmp 1a | 3 % of Cmp 1a (2×) and -4 % of Cmp 1a and 10 % of Cmp 1a | 8 % of Cmp 1a and -0.386 % of Cmp 1a and 18 % of Cmp 1a and 3.4 % of Cmp 1a | 15 % of Cmp 1a and -0.802 % of Cmp 1a and 16 % of Cmp 1a and 14 % of Cmp 1a | 6.66 % of Cmp 1a and 2 % of Cmp 1a and 14 % of Cmp 1a and 12 % of Cmp 1a | 1.77 % of Cmp 1a and 8 % of Cmp 1a and 11 % of Cmp 1a and 6 % of Cmp 1a | 33 % of Cmp 1a and 16 % of Cmp 1a and 43 % of Cmp 1a | 3- to 25 fold |  | 
COc1ccc(-c2nc(CC(=O)NC(C)c3ccccc3)no2)nc1 (centres unmarked) [Compound 1.35, COC1=CN=C(C2=NC(CC(NC(C3=CC=CC=C3)C)=O)=NO2)C=C1] | 7 % of Carbachol and 14 % of Carbachol and 10 % of Carbachol | 54 % of Cmp 1a and 78 % of Cmp 1a and 29 % of Cmp 1a | 5.01 | 101 ± 5 | 94 % of Cmp 1a and 90 % of Cmp 1a and 98 % of Cmp 1a and 75 % of Cmp 1a | 78 % of Cmp 1a and 80 % of Cmp 1a (2×) and 38 % of Cmp 1a | 47 % of Cmp 1a and 55 % of Cmp 1a and 66 % of Cmp 1a and 27 % of Cmp 1a | 20 % of Cmp 1a and 21 % of Cmp 1a and 51 % of Cmp 1a and 17 % of Cmp 1a | -3 % of Cmp 1a and 8 % of Cmp 1a and 26 % of Cmp 1a and 20 % of Cmp 1a | 1.67 % of Cmp 1a and -1.67 % of Cmp 1a and 26 % of Cmp 1a and 31 % of Cmp 1a | 2.67 % of Cmp 1a and 5.33 % of Cmp 1a and 16 % of Cmp 1a and 34 % of Cmp 1a | -2 % of Cmp 1a and 11 % of Cmp 1a and 29 % of Cmp 1a and 25 % of Cmp 1a | -6 % of Cmp 1a and 3 % of Cmp 1a and 17 % of Cmp 1a and -0.333 % of Cmp 1a | 2 % of Cmp 1a and 4.67 % of Cmp 1a and 12 % of Cmp 1a and -2 % of Cmp 1a | 28 % of Cmp 1a and 18 % of Cmp 1a and 35 % of Cmp 1a |  |  | 
CC(NC(=O)Cn1cc(-c2cccs2)nn1)c1ccccc1 (centres unmarked) [Compound 1.38, CC(NC(=O)CN1C=C(N=N1)C2=CC=CS2)C=3C=CC=CC3] | 0.152 % of Carbachol and 1.48 % of Carbachol and 2 % of Carbachol | 54 % of Cmp 1a and 77 % of Cmp 1a and 68 % of Cmp 1a |  | 82 ± 7 | 92 % of Cmp 1a (2×) and 78 % of Cmp 1a and 67 % of Cmp 1a | 90 % of Cmp 1a and 69 % of Cmp 1a and 85 % of Cmp 1a and 60 % of Cmp 1a | 88 % of Cmp 1a and 51 % of Cmp 1a and 91 % of Cmp 1a and 56 % of Cmp 1a | 56 % of Cmp 1a and 17 % of Cmp 1a and 49 % of Cmp 1a and 18 % of Cmp 1a | 22 % of Cmp 1a and -6 % of Cmp 1a and 11 % of Cmp 1a and 3.64 % of Cmp 1a | 7.61 % of Cmp 1a and -2.54 % of Cmp 1a and 1.82 % of Cmp 1a and 1.21 % of Cmp 1a | 0.854 % of Cmp 1a and 4 % of Cmp 1a and -4.35 % of Cmp 1a and 9 % of Cmp 1a | -1.25 % of Cmp 1a and 0.0327 % of Cmp 1a and -3 % of Cmp 1a and 1.5 % of Cmp 1a | 1 % of Cmp 1a and 0.912 % of Cmp 1a and 6 % of Cmp 1a and 0.231 % of Cmp 1a | 5.27 % of Cmp 1a and -0.036 % of Cmp 1a and 7.38 % of Cmp 1a and 4.27 % of Cmp 1a | 22 % of Cmp 1a and 19 % of Cmp 1a |  | 7 | 1.3
